Measured values reported in article PMC6120666 (The EMBO Journal, 2018).

target: T1, NanoLuc-RIPK2 (Homo sapiens, UniProt O43353); experiment: nanoBRET cellular RIPK2 residence time assay in HEKBlue cells; type: binding; conditions: t1/2 for probe to engage RIPK2 after washout of inhibitor
T1 construct: host or cells: hNOD2-HEKBlue cells
T1 sequence (O43353 whole entry): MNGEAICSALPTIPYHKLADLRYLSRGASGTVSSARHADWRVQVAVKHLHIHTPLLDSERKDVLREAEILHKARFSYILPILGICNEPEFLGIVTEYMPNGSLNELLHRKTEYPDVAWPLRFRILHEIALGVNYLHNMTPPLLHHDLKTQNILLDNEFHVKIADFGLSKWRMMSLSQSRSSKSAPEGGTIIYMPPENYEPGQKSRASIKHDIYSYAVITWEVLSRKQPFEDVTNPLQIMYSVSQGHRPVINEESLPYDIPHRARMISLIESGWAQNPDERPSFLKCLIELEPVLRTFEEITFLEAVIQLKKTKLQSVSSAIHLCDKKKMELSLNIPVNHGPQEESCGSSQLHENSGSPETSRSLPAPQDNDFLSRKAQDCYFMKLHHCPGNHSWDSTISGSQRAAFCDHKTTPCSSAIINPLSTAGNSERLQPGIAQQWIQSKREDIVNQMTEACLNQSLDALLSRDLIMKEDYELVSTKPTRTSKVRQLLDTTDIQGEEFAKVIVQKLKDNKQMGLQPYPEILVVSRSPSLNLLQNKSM

Row | SMILES | residence time [min]
1 | CCCS(=O)(=O)Nc1cc(-c2cc(-c3ccc(N4CCNCC4)cc3)cnc2N)cc(OC)c1OC [CSLP43] | 107
2 | CCCS(=O)(=O)Nc1cc(-c2cc(-c3ccc(N4CCNCC4)cc3)cnc2N)ccc1O [CSLP48] | 127
3 | Cc1ccc(-c2nn(C(C)(C)CNC(=O)c3ccncc3)c3ncnc(N)c23)cc1 [WEHI‐345, reference compound] | 7.5
4 | CCCS(=O)(=O)Nc1cc(-c2cc(-c3ccc(N4CCNCC4)cc3)cnc2N)cc(F)c1OC [CSLP37] | 27.1
5 | COc1cc(-c2cc(-c3ccc(N4CCNCC4)cc3)cnc2N)cc(F)c1OC [CSLP55] | 6.8

tested on: RIPK2 ubiquitination in U2OS/NOD2 and THP-1 cells; experiment: Purification of Ub-conjugates (TUBE pulldown), RIPK2 ubiquitination; type: cell-based, human; conditions: U2OS/NOD2 or THP-1 cells, L18-MDP 200 ng/ml, 1 h
Procedure: For co‐immunoprecipitation of HA‐XIAP with RIPK2, transfected and treated cells were lysed in TBS buffer containing 0.5% NP‐40, cOmplete and PhosSTOP inhibitors (Roche) and the lysate was cleared by centrifugation. The lysates were incubated with anti‐HA‐agarose overnight, washed 3× with lysis buffer, and analyzed by immunoblotting. For GST pulldown experiments, U2OS/NOD2 cells were lysed in TBS lysis buffer containing 0.5% NP‐40, cOmplete and PhosSTOP inhibitors (Roche). Cleared lysates were pretreated with kinase inhibitors or DMSO and incubated with GST‐XIAP‐BIR2 bound to Glutathione Sepharose at 4°C overnight. Bound material was washed 3× with lysis buffer or PBS, eluted with 15 mM Glutathione in PBS, and analyzed by immunoblotting. […] The bound material was eluted and analyzed as described above. […]
PBS, eluted with 15 mM Glutathione in PBS and analyzed by immunoblotting. […]

Row | SMILES | RIPK2 ubiquitination after L18-MDP
6 | CCCS(=O)(=O)Nc1cc(-c2cc(-c3ccc(N4CCNCC4)cc3)cnc2N)cc(OC)c1OC [CSLP43] | inhibited RIPK2 ubiquitination
7 | CCCS(=O)(=O)Nc1cc(-c2cc(-c3ccc(N4CCNCC4)cc3)cnc2N)ccc1O [CSLP48] | little or no effect
8 | CCCS(=O)(=O)Nc1cc(-c2cc(-c3ccc(N4CCNCC4)cc3)cnc2N)cc(F)c1OC [CSLP37] | inhibited RIPK2 ubiquitination
9 | COc1cc(-c2cc(-c3ccc(N4CCNCC4)cc3)cnc2N)cc(F)c1OC [CSLP55] | little or no effect

tested on: U2OS/NOD2 cells; experiment: Intracellular flow cytometry of CXCL8 after L18-MDP; type: cell-based, human; conditions: U2OS/NOD2 RIPK2 KO cells reconstituted with T95W gatekeeper mutant; L18-MDP 200 ng/ml, 4 h
Procedure: Purified material and lysates were analyzed by immunoblotting. […] Numbering below schematic refers to amino acid residues in human RIPK2 and indicate domain boundaries. […] Data information: Data in (A, B, D, H) represent the mean ± SEM of 2–4 independent experiments, each performed in duplicate. […] Two‐way ANOVA was used to determine statistical significance. See also Fig EV1.Source data are available online for this figure.
Dark gray represents areas occupied by RIPK2; white areas indicate empty spaces in CSLP binding pocket. […] Dotted black box indicates region shown for models with CSLP37 and CSLP43. • Molecular docking model of RIPK2 kinase domain in complex with CSLP43 (green) based on RIPK2/CSLP18 structure from (D). […] Two‐way ANOVA was used to determine statistical significance. See also Fig EV2.
GST-BIR2-XIAP as indicated. Intensity quantification of SPOTs was performed using ImageJ software
Dual luciferase reporter assay
Intracellular flow cytometry of CXCL8
for cell death) or vehicle for 24h. Viability was determined using the CellTiter-Glo® luminescent cell
together with Transfection Carrier DNA (Promega).
After addition of Nano-Glo

Row | SMILES | inhibition of NOD2 signaling (CXCL8) in cells expressing RIPK2 T95W
10 | CCCS(=O)(=O)Nc1cc(-c2cc(-c3ccc(N4CCNCC4)cc3)cnc2N)cc(OC)c1OC [CSLP43] | no longer observed
11 | CCCS(=O)(=O)Nc1cc(-c2cc(-c3ccc(N4CCNCC4)cc3)cnc2N)ccc1O [CSLP48] | not negatively impacted
12 | CCCS(=O)(=O)Nc1cc(-c2cc(-c3ccc(N4CCNCC4)cc3)cnc2N)cc(F)c1OC [CSLP37] | no longer observed
13 | COc1cc(-c2cc(-c3ccc(N4CCNCC4)cc3)cnc2N)cc(F)c1OC [CSLP55] | not negatively impacted

same assay, conditions: U2OS/NOD2 cells, L18-MDP 200 ng/ml, 4 h

Row | SMILES | L18-MDP-induced CXCL8 production
14 | CCCS(=O)(=O)Nc1cc(-c2cc(-c3ccc(N4CCNCC4)cc3)cnc2N)cc(OC)c1OC [CSLP43] | potent suppression
15 | CCCS(=O)(=O)Nc1cc(-c2cc(-c3ccc(N4CCNCC4)cc3)cnc2N)cc(F)c1OC [CSLP37] | potent suppression

tested on: NOD2/HEKBlue cells; experiment: hNOD2-HEKBlue L18-MDP-induced NF-κB reporter assay; type: cell-based, human; conditions: Homo sapiens, HEK-Blue; L18-MDP-induced NF-κB reporter; average ± SD of at least three titrations
Procedure: For HEKBlue assay, cells were seeded into clear 96‐well plates at 7.5 × 10^3 cells/well and allowed to attach for 48 h. On the day of the experiment, media was changed to 100 μl of HEKBlue detection media (InvivoGen). Inhibitors were diluted and added in 0.5 μl DMSO 15 min prior to the addition of 1 ng/ml L18‐MDP (InvivoGen). After 8–9 h, absorbance at 620 nm was measured using Victor3V plate reader (Perkin Elmer, Waltham, MA). Values of media‐only wells were subtracted and %inhibition for each compound concentration relative to the DMSO/L18‐MDP‐treated controls was calculated. Inhibition values ± SD were fitted by non‐linear regression using Prism software (GraphPad Software, La Jolla, CA) to calculate IC50 values. For THP1Blue assay, 1 × 10^5 cells were seeded in 200 μl of RPMI media in 96‐well plates and treated with inhibitors in 0.5 μl DMSO for 15 min prior to the addition of 10 μg/ml MDP, 10 ng/ml Pam3CSK4, 10 ng/ml E. coli LPS, or 1 × 10^7 cells/ml heat‐killed L. monocytogenes (InvivoGen) for 24 h. After induction, 20 μl of media was mixed with 180 μl of QUANTI‐Blue reagent (InvivoGen) and incubated at 37°C for 3–4 h, followed by absorbance measurement at 620 nm. IC50 values were calculated as described for HEKBlue assay.
Cayman Chemical Company, Ann Arbor, MI), GSK583 (#HY-100339, MedChem Express, South Brunswick, NJ), WEHI-345 (MedKoo Biosciences, Morrisville, NC), Compound A (CpA, a kind gift from TetraLogic Pharmaceuticals, Malvern, PA). Generation of the CSLP compound series is described in Suebsuwong et al. 2018 (manuscript in preparation). hNOD2-HEKBlue and THP1Blue assays
For HEKBlue assay, cells were seeded into clear 96 well plates at 7.5x10^3 cells/well and allowed to attach for 48 h. On the day of the experiment, media was changed to 100 μl of HEKBlue detection media (InvivoGen). Inhibitors were diluted and added in 0.5 μl DMSO 15 min prior to the addition of 1 ng/ml L18-MDP (InvivoGen). After 8-9 h, absorbance at 620 nm was measured using Victor3V plate reader (Perkin Elmer, Waltham, MA). Values of media-only wells were subtracted and %inhibition for each compound concentration relative to the DMSO/L18-MDP-treated controls were calculated.
Inhibition values + StDev were fitted by non-linear regression using Prism software (GraphPad Software, La Jolla, CA) to calculate IC50 values. For THP1Blue assay, 1x10^5 cells were seeded in 200 μl of RPMI media in 96 well plates and treated with inhibitors in 0.5 μl DMSO 15 min prior to the addition of 10 µg/ml MDP, 10 ng/ml Pam3CSK4, 10 ng/ml E. coli LPS or 1x10^7 cells/ml heat-killed L. monocytogenes (InvivoGen) for 24 h. After induction, 20 μl of media was mixed with 180 μl of QUANTI-Blue reagent (InvivoGen) and incubated at 37 °C for 3-4 h, followed by absorbance measurement at 620 nm. IC50 values were calculated as described for HEKBlue assay. […]

Row | SMILES | IC50 [nM]
16 | CCCS(=O)(=O)Nc1cc(-c2cc(-c3ccc(N4CCNCC4)cc3)cnc2N)cc(OC)c1OC [CSLP43] | 1.3 ± 0.4
17 | CCCS(=O)(=O)Nc1cc(-c2cc(-c3ccc(N4CCNCC4)cc3)cnc2N)ccc1O [CSLP48] | > 5000
18 | Cc1ccc(-c2nn(C(C)(C)CNC(=O)c3ccncc3)c3ncnc(N)c23)cc1 [WEHI‐345, reference compound] | 3370
19 | CCCS(=O)(=O)Nc1cc(-c2cc(-c3ccc(N4CCNCC4)cc3)cnc2N)cc(F)c1OC [CSLP37] | 26.3 ± 3.7
20 | COc1cc(-c2cc(-c3ccc(N4CCNCC4)cc3)cnc2N)cc(F)c1OC [CSLP55] | 595 ± 69.6

same assay, conditions: Table 1; Fig 4A

Row | SMILES | fold lower cellular potency than against RIPK2 kinase in vitro [fold]
21 | Cc1ccc(-c2nn(C(C)(C)CNC(=O)c3ccncc3)c3ncnc(N)c23)cc1 [WEHI‐345, reference compound] | > 10

target: T1, NanoLuc-RIPK2; experiment: nanoBRET cellular RIPK2 target engagement assay in HEKBlue cells; conditions: average ± SD of at least three titrations, read-out: IC50, Cellular activity, nanoBRET RIPK2 binding

Row | SMILES | IC50 [nM]
22 | CCCS(=O)(=O)Nc1cc(-c2cc(-c3ccc(N4CCNCC4)cc3)cnc2N)cc(OC)c1OC [CSLP43] | 10.1 ± 3.8
23 | CCCS(=O)(=O)Nc1cc(-c2cc(-c3ccc(N4CCNCC4)cc3)cnc2N)ccc1O [CSLP48] | 1230
24 | Cc1ccc(-c2nn(C(C)(C)CNC(=O)c3ccncc3)c3ncnc(N)c23)cc1 [WEHI‐345, reference compound] | 521 ± 172
25 | CCCS(=O)(=O)Nc1cc(-c2cc(-c3ccc(N4CCNCC4)cc3)cnc2N)cc(F)c1OC [CSLP37] | 36.3 ± 20.2
26 | COc1cc(-c2cc(-c3ccc(N4CCNCC4)cc3)cnc2N)cc(F)c1OC [CSLP55] | 195 ± 47.1
